The results in this text go back to EPA's ToxValDB 9.5 (doi:10.2903/j.efsa.2008.183r).

Each structure is given as a SMILES string. Values after ≈ are worked out from the molar mass of the structure shown. Some results are limits rather than exact numbers.

In data set [1] the test system is Anas platyrhynchos. Conditions: short-term; oral; feed; mortality.
The subject of data set [2] is Oncorhynchus mykiss. Conditions: acute; duration: 96 hours; mortality.
The test system of data set [3] is Colinus virginianus. The following applies: acute, oral, mortality; for LC50: diet.
The test system of data set [4] is Rattus norvegicus. The following applies: inhalation.
The subject of data set [5] is Coturnix japonica. Conditions: reproduction developmental; reproduction.
Where [6] appears, read: chronic, duration: 2 years, no effects.
Setting [7] is: reproduction developmental, mortality.
[8] abbreviates: subchronic, duration: 90 days, no effects.

As to `P` [Phosphine], the LC50 in data set [1] stood at 762 mg/kg; in data set [2], 4.68 ng/mL (≈ 0.138 µM); in data set [3] it was 124 mg/kg. The LD50 in data set [3] was ≤ 9.2 mg/kg-day. The NOAEL (in general, the highest tested level that showed no adverse finding) was 1.1 mg/kg-day in data set [4] (setting [6]), 1.9 mg/kg-day in data set [4] (setting [7]) and 1.1 mg/kg-day in data set [4] (setting [8]).

As for `[Ca+2].[Ca+2].[Ca+2].[P-3].[P-3]` [Tricalcium diphosphide], the LC50 in data set [1] is 2040 mg/kg; in data set [3], 330 mg/kg. The LD50 in data set [3] is < 24.7 mg/kg-day. The NOAEL worked out at 1.1 mg/kg-day in data set [4] (setting [6]), 1.9 mg/kg-day in data set [4] (setting [7]) and 1.1 mg/kg-day in data set [4] (setting [8]).

In the case of `[PH]=[Zn].[PH]=[Zn].[Zn]` [Zinc phosphide (Zn3P2)], the LC50 in data set [1] was determined as 2880 mg/kg; in data set [3] it was 469 mg/kg. Also, the NOEC in data set [5] was < 3.5 mg/kg-day. Moreover, in data set [3], the LD50 was < 35 mg/kg-day.
